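Growth conditions: 96-well plates. Treatment: test compound, 48 hours, 5 concentrations. Analysis: linear interpolation between bracketing concentrations; unreached endpoints set to highest concentration. The concentration for full growth arrest is given as TGI.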
Experiments:
Test in all cases: NCI anticancer screen, dose series, 48 h
[1] = test system: SK-MEL-28 melanoma
[2] = test system: OVCAR-8 ovarian
[3] = test system: NCI-H522 lung
[4] = test system: U251 CNS
[5] = test system: SK-MEL-5 melanoma
[6] = test system: SK-MEL-2 melanoma
[7] = test system: HOP-92 NSCLC
[8] = test system: T-47D breast
[9] = test system: HCT-15 colon
[10] = test system: SR leukemia
[11] = test system: OVCAR-3 ovarian
[12] = test system: LOX IMVI melanoma
[13] = test system: UACC-62 melanoma
[14] = test system: MOLT-4 leukemia
[15] = test system: M14 melanoma
[16] = test system: NCI/ADR-RES ovarian
[17] = test system: OVCAR-4 ovarian
[18] = test system: KM12 colon
[19] = test system: RPMI-8226 leukemia
[20] = test system: HCC-2998 colon
[21] = test system: 786-0 renal
[22] = test system: MDA-N
[23] = test system: PC-3 prostate
[24] = test system: K-562 leukemia
[25] = test system: HCT-116 colon
[26] = test system: BT-549 breast
[27] = test system: COLO 205 colon
[28] = test system: A498 renal
[29] = test system: HOP-62 NSCLC
[30] = test system: IGROV1 ovarian
[31] = test system: SNB-19 CNS
[32] = test system: TK-10 renal
[33] = test system: EKVX NSCLC
[34] = test system: SW-620 colon
[35] = test system: UACC-257 melanoma
[36] = test system: MDA-MB-231 breast
[37] = test system: CCRF-CEM leukemia
[38] = test system: MALME-3M melanoma
[39] = test system: ACHN renal
[40] = test system: HT29 colon
[41] = test system: SN12C renal
[42] = test system: MCF7 breast
[43] = test system: MDA-MB-435
[44] = test system: SF-539 CNS
[45] = test system: HS 578T breast
[46] = test system: NCI-H460 lung
[47] = test system: CAKI-1 renal
[48] = test system: DU-145 prostate
[49] = test system: HL-60(TB) leukemia
[50] = test system: NCI-H23 lung
[51] = test system: UO-31 renal
[52] = test system: A549 NSCLC
[53] = test system: SF-295 CNS
[54] = test system: OVCAR-5 ovarian
[55] = test system: SNB-75 CNS
[56] = test system: NCI-H226 lung
[57] = test system: RXF 393 renal
[58] = test system: SK-OV-3 ovarian
[59] = test system: SF-268 CNS

## CC(=O)Oc1cc(S(=O)(=O)Nc2n[nH]c(N)n2)c(S)cc1Cl
[1]
  TGI: > 100 µM
[2]
  TGI: > 100 µM
[3]
  TGI: > 100 µM
[4]
  TGI: > 100 µM
[5]
  TGI: > 100 µM
[6]
  TGI: > 100 µM
[7]
  TGI: > 100 µM
[8]
  TGI: > 100 µM
[9]
  TGI: > 100 µM
[10]
  TGI: > 100 µM
[11]
  TGI: > 100 µM
[12]
  TGI: > 100 µM
[13]
  TGI: > 100 µM
[14]
  TGI: > 100 µM
[15]
  TGI: > 100 µM
[16]
  TGI: > 100 µM
[17]
  TGI: > 100 µM
[18]
  TGI: > 100 µM
[19]
  TGI: > 100 µM
[20]
  TGI: > 100 µM
[21]
  TGI: > 100 µM
[22]
  TGI: > 100 µM
[23]
  TGI: > 100 µM
[24]
  TGI: > 100 µM
[25]
  TGI: > 100 µM
[26]
  TGI: > 100 µM
[27]
  TGI: > 100 µM
[28]
  TGI: > 100 µM
[29]
  TGI: > 100 µM
[30]
  TGI: > 100 µM
[31]
  TGI: > 100 µM
[32]
  TGI: > 100 µM
[33]
  TGI: > 100 µM
[34]
  TGI: > 100 µM
[35]
  TGI: > 100 µM
[36]
  TGI: > 100 µM
[37]
  TGI: > 100 µM
[38]
  TGI: > 100 µM
[39]
  TGI: > 100 µM
[40]
  TGI: > 100 µM
[41]
  TGI: > 100 µM
[42]
  TGI: > 100 µM
[43]
  TGI: > 100 µM
[44]
  TGI: > 100 µM
[45]
  TGI: > 100 µM
[46]
  TGI: > 100 µM
[47]
  TGI: > 100 µM
[48]
  TGI: > 100 µM
[49]
  TGI: > 100 µM
[50]
  TGI: > 100 µM
[51]
  TGI: > 100 µM
[52]
  TGI: > 100 µM
[53]
  TGI: > 100 µM
[54]
  TGI: > 100 µM

## Cc1cc(-c2ccc(C(=O)C(c3ccccc3)(c3ccccc3)c3ccccc3)[nH]2)on1
[1]
  TGI: 52.9 µM
[2]
  TGI: 42 µM
[4]
  TGI: 37.1 µM
[5]
  TGI: 29.4 µM
[6]
  TGI: 36 µM
[55]
  TGI: > 100 µM
[7]
  TGI: 51.8 µM
[56]
  TGI: 42.5 µM
[8]
  TGI: > 100 µM
[9]
  TGI: 41.6 µM
[10]
  TGI: 29.7 µM
[11]
  TGI: > 100 µM
[12]
  TGI: 53.3 µM
[57]
  TGI: 9.46 µM
[13]
  TGI: 37 µM
[14]
  TGI: 84.9 µM
[15]
  TGI: 71.8 µM
[16]
  TGI: 36.8 µM
[17]
  TGI: 88.1 µM
[18]
  TGI: 47.5 µM
[19]
  TGI: 48.1 µM
[20]
  TGI: 25.6 µM
[21]
  TGI: 40.7 µM
[22]
  TGI: 41 µM
[23]
  TGI: 49.1 µM
[24]
  TGI: > 100 µM
[25]
  TGI: 27.9 µM
[26]
  TGI: 45.8 µM
[27]
  TGI: 42.2 µM
[28]
  TGI: > 100 µM
[29]
  TGI: 53.5 µM
[30]
  TGI: 73.9 µM
[31]
  TGI: 58.4 µM
[33]
  TGI: 39.9 µM
[34]
  TGI: 75 µM
[35]
  TGI: > 100 µM
[36]
  TGI: 49.6 µM
[37]
  TGI: 52.9 µM
[58]
  TGI: > 100 µM
[38]
  TGI: > 100 µM
[40]
  TGI: 25.6 µM
[41]
  TGI: 40.6 µM
[42]
  TGI: > 100 µM
[43]
  TGI: 67.7 µM
[44]
  TGI: > 100 µM
[59]
  TGI: 68.7 µM
[45]
  TGI: > 100 µM
[46]
  TGI: 21.6 µM
[47]
  TGI: 69.5 µM
[48]
  TGI: 50.3 µM
[49]
  TGI: 26.1 µM
[50]
  TGI: 32.4 µM
[51]
  TGI: 30.2 µM
[52]
  TGI: 45.6 µM
[53]
  TGI: 97.7 µM
[54]
  TGI: > 100 µM

## Oc1ccccc1-n1nc2ccc3nonc3c2n1
[1]
  TGI: > 100 µM
[2]
  TGI: > 100 µM
[3]
  TGI: > 100 µM
[4]
  TGI: > 100 µM
[5]
  TGI: > 100 µM
[6]
  TGI: > 100 µM
[55]
  TGI: > 100 µM
[7]
  TGI: > 100 µM
[56]
  TGI: > 100 µM
[8]
  TGI: > 100 µM
[9]
  TGI: > 100 µM
[10]
  TGI: > 100 µM
[11]
  TGI: > 100 µM
[12]
  TGI: > 100 µM
[13]
  TGI: > 100 µM
[14]
  TGI: > 100 µM
[15]
  TGI: > 100 µM
[16]
  TGI: > 100 µM
[17]
  TGI: > 100 µM
[18]
  TGI: > 100 µM
[19]
  TGI: > 100 µM
[20]
  TGI: > 100 µM
[21]
  TGI: > 100 µM
[22]
  TGI: > 100 µM
[23]
  TGI: > 100 µM
[24]
  TGI: > 100 µM
[25]
  TGI: > 100 µM
[26]
  TGI: > 100 µM
[27]
  TGI: > 100 µM
[29]
  TGI: > 100 µM
[30]
  TGI: > 100 µM
[31]
  TGI: > 100 µM
[32]
  TGI: > 100 µM
[33]
  TGI: > 100 µM
[34]
  TGI: > 100 µM
[35]
  TGI: > 100 µM
[36]
  TGI: > 100 µM
[37]
  TGI: > 100 µM
[58]
  TGI: > 100 µM
[38]
  TGI: > 100 µM
[39]
  TGI: > 100 µM
[40]
  TGI: > 100 µM
[41]
  TGI: > 100 µM
[42]
  TGI: > 100 µM
[43]
  TGI: > 100 µM
[44]
  TGI: > 100 µM
[59]
  TGI: > 100 µM
[45]
  TGI: > 100 µM
[46]
  TGI: > 100 µM
[47]
  TGI: > 100 µM
[48]
  TGI: > 100 µM
[49]
  TGI: > 100 µM
[50]
  TGI: > 100 µM
[51]
  TGI: > 100 µM
[52]
  TGI: > 100 µM
[53]
  TGI: > 100 µM
[54]
  TGI: > 100 µM

## CCOC(=O)Oc1ccc2c(c1)c(=O)c1c(NCCCN(CC)CC)ccc3nnn2c31
[1]
  TGI: 33.2 µM
[2]
  TGI: 19.5 µM
[3]
  TGI: 19.7 µM
[4]
  TGI: 23.6 µM
[5]
  TGI: 23.2 µM
[6]
  TGI: 30 µM
[7]
  TGI: 24.6 µM
[56]
  TGI: 19.8 µM
[8]
  TGI: 31.1 µM
[9]
  TGI: 21 µM
[10]
  TGI: > 53 µM
[11]
  TGI: 20 µM
[12]
  TGI: 12 µM
[57]
  TGI: 19.8 µM
[13]
  TGI: 29 µM
[14]
  TGI: > 100 µM
[15]
  TGI: 25.4 µM
[16]
  TGI: 28.1 µM
[17]
  TGI: 20.2 µM
[18]
  TGI: 19.8 µM
[19]
  TGI: 10.1 µM
[20]
  TGI: 21.8 µM
[21]
  TGI: 15.7 µM
[22]
  TGI: 20.6 µM
[23]
  TGI: 20.9 µM
[24]
  TGI: > 52.7 µM
[25]
  TGI: 15.8 µM
[26]
  TGI: 32 µM
[27]
  TGI: 25.1 µM
[28]
  TGI: 23.2 µM
[29]
  TGI: 12.5 µM
[30]
  TGI: 34.2 µM
[31]
  TGI: 19.5 µM
[32]
  TGI: 17.5 µM
[33]
  TGI: 23 µM
[34]
  TGI: 16.2 µM
[35]
  TGI: 29.8 µM
[36]
  TGI: 21.8 µM
[37]
  TGI: 6.88 µM
[58]
  TGI: 23.4 µM
[38]
  TGI: 29.7 µM
[39]
  TGI: 15.8 µM
[40]
  TGI: 15.9 µM
[41]
  TGI: 19.1 µM
[42]
  TGI: 15.7 µM
[43]
  TGI: 18.3 µM
[44]
  TGI: 19 µM
[59]
  TGI: 28.2 µM
[45]
  TGI: 40.7 µM
[46]
  TGI: 15.2 µM
[47]
  TGI: 9.75 µM
[48]
  TGI: 17.4 µM
[50]
  TGI: 29.3 µM
[51]
  TGI: 15 µM
[52]
  TGI: 16.9 µM
[53]
  TGI: 21.3 µM
[54]
  TGI: 33.5 µM
